The target of this assay is T1, human glucagon receptor (Homo sapiens, UniProt P47871).
T1 construct: expressed in transfected cells; host or cells: BHK (baby hamster kidney) cells
The assay is described as follows: Glucagon Binding Assay (III). Particulars: BHK cell membranes, WGA SPA beads, 125I-glucagon; read-out: Glu Bd Assay (III) IC50. The gist of the method: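 Non-specific binding was set with 500 nM glucagon in this SPA-type binding assay using WGA beads. The receptor source was a membrane preparation, kept on ice or at 4 °C, from BHK cells transfected with the human receptor. Scintillation counts were taken after 4 hours of shaking and 8–48 hours of settling.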

Consider 33 compounds from US6875760B2 (Novo Nordisk A/S, priority 1999, dated 2005).

T1 sequence (P47871 26-477): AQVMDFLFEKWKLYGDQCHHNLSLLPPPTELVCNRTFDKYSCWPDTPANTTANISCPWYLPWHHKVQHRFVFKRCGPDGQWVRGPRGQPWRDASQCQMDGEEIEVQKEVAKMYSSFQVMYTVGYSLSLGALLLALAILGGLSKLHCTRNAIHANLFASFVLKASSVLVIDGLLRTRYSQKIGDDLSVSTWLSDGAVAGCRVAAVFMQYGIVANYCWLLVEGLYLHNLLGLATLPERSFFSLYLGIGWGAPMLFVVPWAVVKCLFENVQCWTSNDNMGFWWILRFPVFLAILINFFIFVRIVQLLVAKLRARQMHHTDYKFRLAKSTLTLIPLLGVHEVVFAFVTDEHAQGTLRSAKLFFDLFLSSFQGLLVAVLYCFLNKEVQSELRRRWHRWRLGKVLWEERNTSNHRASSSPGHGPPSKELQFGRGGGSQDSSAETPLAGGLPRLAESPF

`O=C(Nc1nn[nH]n1)c1ccc(CN(C(=O)NCc2cc(F)cc(C(F)(F)F)c2)c2ccc(C3CCCCC3)cc2)cc1` [Example 270, 4-[1-(4-Cyclohexylphenyl)-3-(3-fluoro-5-trifluoromethylbenzyl)ureidomethyl]-N-(2H-tetrazol-5-yl)benzamide]: the IC50 was 64 nM.

In the case of `O=C(Nc1nn[nH]n1)c1ccc(CN(C(=O)Nc2cc(C(F)(F)F)cc(C(F)(F)F)c2)c2ccc(C3CCCCC3)cc2)cc1` [Example 271, 4-[3-(3,5-Bis-trifluoromethylphenyl)-1-(4-cyclohexylphenyl)ureidomethyl]-N-(2H-tetrazol-5-yl)benzamide], the IC50 is 9 nM. Next, `CC(=O)c1ccc(NC(=O)N(Cc2ccc(C(=O)Nc3nn[nH]n3)cc2)c2ccc(C3CCCCC3)cc2)cc1` [Example 272, 4-[3-(4-Acetylphenyl)-1-(4-cyclohexylphenyl)ureidomethyl]-N-(2H-tetrazol-5-yl)benzamide]: 192 nM; `CC(=O)c1ccc(NC(=O)N(Cc2ccc(C(=O)Nc3nn[nH]n3)cc2)C2CCC(C(C)(C)C)CC2)cc1` (stereo not drawn) [Example 273, 4-[3-(4-Acetylphenyl)-1-(4-tert-butylcyclohexyl)ureidomethyl]-N-(2H-tetrazol-5-yl)benzamide]: 319 nM; `CC(C)(C)C1CCC(N(Cc2ccc(C(=O)Nc3nn[nH]n3)cc2)C(=O)Nc2cccc(C#N)c2)CC1` (stereo not drawn) [Example 274, 4-[1-(4-tert-Butylcyclohexyl)-3-(3-cyanophenyl)ureidomethyl]-N-(2H-tetrazol-5-yl)benzamide]: 94 nM. The figure for `CN(C)S(=O)(=O)c1cccc(NC(=O)N(Cc2ccc(C(=O)Nc3nn[nH]n3)cc2)c2ccc(C3CCCCC3)cc2)c1` [Example 275, 4-[1-(4-Cyclohexylphenyl)-3-(3-dimethylsulfamoylphenyl)ureidomethyl]-N-(2H-tetrazol-5-yl)benzamide] is 101 nM.

As to `CN(C)S(=O)(=O)c1cccc(NC(=O)N(Cc2ccc(C(=O)Nc3nn[nH]n3)cc2)c2ccc(C(C)(C)C)cc2)c1` [Example 276, 4-[1-(4-tert-Butylphenyl)-3-(3-dimethylsulfamoylphenyl)ureidomethyl]-N-(2H-tetrazol-5-yl)benzamide], the IC50 was determined as 313 nM. The figure for `CC(C)(C)c1ccc(N(Cc2ccc(C(=O)Nc3nn[nH]n3)cc2)C(=O)Nc2cccc(S(=O)(=O)N3CCCCC3)c2)cc1` [Example 277] is 411 nM; for `O=C(Nc1nn[nH]n1)c1ccc(CN(C(=O)Nc2cccc(SC(F)(F)F)c2)c2ccc(C3CCCCC3)cc2)cc1` [Example 278, 4-[1-(4-Cyclohexylphenyl)-3-(3-trifluoromethylsulfanylphenyl)ureidomethyl]-N-(2H-tetrazol-5-yl)benzamide] it is 88 nM; for `O=C(Nc1nn[nH]n1)c1ccc(CN(C(=O)Nc2ccccc2)c2ccc(C3CCCCC3)cc2)cc1` [Example 279, 4-[1-(4-Cyclohexylphenyl)-3-phenylureidomethyl]-N-(2H-tetrazol-5-yl)benzamide] it is 84 nM. The figure for `CCCCc1ccc(N(Cc2ccc(C(=O)Nc3nn[nH]n3)cc2)C(=O)Nc2ccccc2)cc1` [Example 280, 4-[1-(4-Butylphenyl)-3-phenylureidomethyl]-N-(2H-tetrazol-5-yl)benzamide] is 252 nM; for `CCCCc1ccc(N(Cc2ccc(C(=O)Nc3nn[nH]n3)cc2)C(=O)Nc2cccc(C#N)c2)cc1` [Example 281, 4-[1-(4-Butylphenyl)-3-(3-cyanophenyl)ureidomethyl]-N-(2H-tetrazol-5-yl)benzamide] it is 185 nM; for `CC(=O)c1cccc(NC(=O)N(Cc2ccc(C(=O)Nc3nn[nH]n3)cc2)c2ccc(C3CCCCC3)cc2)c1` [Example 283, 4-[3-(3-Acetylphenyl)-1-(4-cyclohexylphenyl)ureidomethyl]-N-(2H-tetrazol-5-yl)benzamide] it is 57 nM.

In the case of `O=C(Nc1nn[nH]n1)c1ccc(CN(C(=O)Nc2ccc(Cl)c(C(F)(F)F)c2)c2ccc(OC(F)(F)F)cc2)cc1` [Example 284, 4-[3-(4-Chloro-3-trifluoromethylphenyl)-1-(4-trifluoromethoxyphenyl)ureidomethyl]-N-(2H-tetrazol-5-yl)benzamide], the IC50 was found to be 54 nM. On to `O=C(Nc1nn[nH]n1)c1ccc(CN(C(=O)Nc2cccc([N+](=O)[O-])c2)c2ccc(OC(F)(F)F)cc2)cc1` [Example 285], for which the IC50 came out at 151 nM.

On to `O=C(Nc1nn[nH]n1)c1ccc(CN(C(=O)Nc2cccc([N+](=O)[O-])c2)c2ccc(C3CCCCC3)cc2)cc1` [Example 286, 4-[1-(4-Cyclohexylphenyl)-3-(3-nitrophenyl)ureidomethyl]-N-(2H-tetrazol-5-yl)benzamide], for which the IC50 is 26 nM. Turning to `CC(C)(C)c1ccc(N(Cc2ccc(C(=O)Nc3nn[nH]n3)cc2)C(=O)Nc2cccc([N+](=O)[O-])c2)cc1` [Example 287, 4-[1-(4-tert-Butylphenyl)-3-(3-nitrophenyl)ureidomethyl]-N-(2H-tetrazol-5-yl)benzamide], the IC50 is 52 nM.

Regarding `CCCCc1ccc(N(Cc2ccc(C(=O)Nc3nn[nH]n3)cc2)C(=O)Nc2cccc([N+](=O)[O-])c2)cc1` [Example 288, 4-[1-(4-Butylphenyl)-3-(3-nitrophenyl)ureidomethyl]-N-(2H-tetrazol-5-yl)benzamide], the 50% inhibitory concentration (IC50) was determined as 75 nM.

As for `CCSc1cccc(NC(=O)N(Cc2ccc(C(=O)Nc3nn[nH]n3)cc2)c2ccc(C3CCCCC3)cc2)c1` [Example 289, 4-[1-(4-Cyclohexylphenyl)-3-(3-ethylsulfanylphenyl)ureidomethyl]-N-(2H-tetrazol-5-yl)benzamide], the IC50 came out at 27 nM.

For `CCC(C)c1ccc(N(Cc2ccc(C(=O)Nc3nn[nH]n3)cc2)C(=O)Nc2cc(C(=O)OC)cc(C(=O)OC)c2)cc1` (stereo not drawn) [Example 290], the IC50 amounted to 101 nM. Next, `O=C(Nc1nn[nH]n1)c1ccc(CN(C(=O)Nc2ccc(OC(F)(F)F)cc2)c2ccc(C3CCCCC3)cc2)cc1` [Example 291, 4-[1-(4-Cyclohexylphenyl)-3-(4-trifluoromethoxyphenyl)ureidomethyl]-N-(2H-tetrazol-5-yl)benzamide]: 42 nM; `CCCCc1ccc(N(Cc2ccc(C(=O)Nc3nn[nH]n3)cc2)C(=O)Nc2ccc(OC(F)(F)F)cc2)cc1` [Example 292, 4-[1-(4-Butylphenyl)-3-(4-trifluoromethoxyphenyl)ureidomethyl]-N-(2H-tetrazol-5-yl)benzamide]: 106 nM; `CSc1cccc(NC(=O)N(Cc2ccc(C(=O)Nc3nn[nH]n3)cc2)c2ccc(C(C)(C)C)cc2)c1` [Example 293, 4-[1-(4-tert-Butylphenyl)-3-(3-methylsulfanylphenyl)ureidomethyl]-N-(2H-tetrazol-5-yl)benzamide]: 45 nM.

Consider `CC(C)(C)c1ccc(N(Cc2ccc(C(=O)Nc3nn[nH]n3)cc2)C(=O)Nc2cccc(C(F)(F)F)c2)cc1` [Example 294, 4-[1-(4-tert-Butylphenyl)-3-(3-trifluoromethylphenyl)ureidomethyl]-N-(2H-tetrazol-5-yl)benzamide], for which the IC50 amounted to 50 nM. Next, `CC(C)(C)c1ccc(N(Cc2ccc(C(=O)Nc3nn[nH]n3)cc2)C(=O)Nc2cccc(C#N)c2)cc1` [Example 295, 4-[1-(4-tert-Butylphenyl)-3-(3-cyanophenyl)ureidomethyl]-N-(2H-tetrazol-5-yl)benzamide]: 279 nM; `CC(C)(C)c1ccc(N(Cc2ccc(C(=O)Nc3nn[nH]n3)cc2)C(=O)Nc2cccc(Cl)c2)cc1` [Example 296, 4-[1-(4-tert-Butylphenyl)-3-(3-chlorophenyl)ureidomethyl]-N-(2H-tetrazol-5-yl)benzamide]: 304 nM; `CC(=O)c1cccc(NC(=O)N(Cc2ccc(C(=O)Nc3nn[nH]n3)cc2)c2ccc(C(C)(C)C)cc2)c1` [Example 297, 4-[3-(3-Acetylphenyl)-1-(4-tert-butylphenyl)ureidomethyl]-N-(2H-tetrazol-5-yl)benzamide]: 87 nM. For `CSc1ccc(NC(=O)N(Cc2ccc(C(=O)Nc3nn[nH]n3)cc2)c2ccc(C3CCCCC3)cc2)cc1` [Example 298, 4-[1-(4-Cyclohexylphenyl)-3-(4-methylsulfanylphenyl)ureidomethyl]-N-(2H-tetrazol-5-yl)benzamide], the IC50 turned out to be 38 nM. As for `O=C(Nc1nn[nH]n1)c1ccc(CN(C(=O)Nc2cccc(SCC3CC3)c2)c2ccc(C3CCCCC3)cc2)cc1` [Example 299, 4-[1-(4-Cyclohexylphenyl)-3-(3-cyclopropylmethylsulfanylphenyl)ureidomethyl]-N-(2H-tetrazol-5-yl)benzamide], the IC50 was 171 nM. Next, `O=C(Nc1nn[nH]n1)c1ccc(CN(C(=O)Nc2cccc(SC3CCCC3)c2)c2ccc(C3CCCCC3)cc2)cc1` [Example 300, 4-[1-(4-Cyclohexylphenyl)-3-(3-cyclopentylsulfanylphenyl)ureidomethyl]-N-(2H-tetrazol-5-yl)benzamide]: 197 nM.

Take `O=C(Nc1nn[nH]n1)c1ccc(CN(C(=O)Nc2ccc(SC(F)(F)F)cc2)c2ccc(C3CCCCC3)cc2)cc1` [Example 301, 4-[1-(4-Cyclohexylphenyl)-3-(4-trifluoromethylsulfanylphenyl)ureidomethyl]-N-(2H-tetrazol-5-yl)benzamide]: the concentration for half-maximal inhibition (IC50) was found to be 35 nM. The figure for `CSc1cccc(NC(=O)N(Cc2ccc(C(=O)Nc3nn[nH]n3)cc2)c2ccc(C3CCCCC3)cc2)c1` [Example 302, 4-[1-(4-Cyclohexylphenyl)-3-(3-methylsulfanylphenyl)ureidomethyl]-N-(2H-tetrazol-5-yl)benzamide] is 62 nM; for `O=C(Nc1nn[nH]n1)c1ccc(CN(C(=O)Nc2cccc(S(=O)(=O)C(F)(F)F)c2)c2ccc(C3CCCCC3)cc2)cc1` [Example 303, 4-[1-(4-Cyclohexylphenyl)-3-(3-trifluoromethylsulfonylphenyl)ureidomethyl]-N-(2H-tetrazol-5-yl)benzamide] it is 53 nM.

The IC50 is the point on the concentration scale where inhibition reaches its midpoint.
